Results as given in patent US12286435B2, “Compound having benzo seven-membered ring structure, preparation method therefor, and use thereof” (BIONNA (BEIJING) MEDICAL TECHNOLOGY CO., LTD., priority 2019, dated 2025).

Assays:
BRD4 BD1 protein = BRD4 BD1 protein (Homo sapiens (Human), UniProt O60885); assay: Fluorescence polarization binding affinity (Ki) with BRD4 BD1 protein; conditions: fluorescence polarization; Ki calculated from IC50
BRD4 BD2 protein = BRD4 BD2 protein (Homo sapiens (Human), UniProt O60885); assay: Fluorescence polarization binding affinity (Ki) with BRD4 BD2 protein; conditions: fluorescence polarization; Ki calculated from IC50
[1] = test system: multiple myeloma MM.1S cell line; assay: Cell viability (CCK-8), multiple myeloma MM.1S; assay type: cell-based; conditions: Homo sapiens, MM1.S, 96 h, MM.1S cells, 4 days, CCK-8, 50% inhibition of cell growth
Procedure, shortened: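 Cells (about 3000-5000 per well) exposed to 3-fold serial dilutions of compound for 4 days at 37° C, 5% CO2. CCK-8 added 2-4 h, absorbance at 450 nm, viability normalised to untreated cells after medium-only blank subtraction; IC50 is concentration giving 50% growth inhibition.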

[2] = test system: breast cancer MDA-MB-231 cell line; assay: Cell viability (CCK-8), breast cancer MDA-MB-231; assay type: cell-based; conditions: Homo sapiens, 96 h; MDA-MB-231 cells, 4 days, CCK-8, 50% inhibition of cell growth
Procedure: (§1) 3. Determination of cell viability of the compound
(§2) The sample to be tested was dissolved with 100% dimethyl sulfoxide to prepare a 20 mM stock solution of the compound, which was diluted with 100% dimethyl sulfoxide to the highest compound concentration required for the experiment (2.5 mM).
(§3) First, 145 uL of a complete cell culture medium was added to wells B1-G1 of a 96-well flat-bottomed tansparent cell culture plate, and 100 uL of the complete medium was added to wells B2-G12, respectively. Then, 5 uL of the 2.5 mM solution of the compound was added to wells B1-D1 and E1-G1 respectively, and then diluted gradiently by 3-folds to B12-D12 and E12-G12 in sequence. Finally, 50 uL of the solution of the cells to be tested was added to each well, with about 3000-5000 cells per well, and a total volume of 150 uL per well.
(§4) In the experiment, in addition to the tested compound, two other control groups were set up: 1) a control group adding the cells and the complete medium, but without adding the compound; 2) a control group adding the complete medium only, without adding the cells and the compound. The 96-well plate was placed in a 37° C. cell culture incubator containing 5% carbon dioxide for 4 days, added with 15 uL of a CCK-8 reagent per well, and then incubated at 37° C. for 2-4 hours. The 96-well plate was read on a TECAN microplate reader, and the absorbance value at 450 nm wavelength was taken.
(§5) The effect of different concentrations of the compound on cell viability was calculated by the following equation: [absorption value of the experimental group−absorption value of pure cell culture medium without the cells or the compound]/[absorption value of the control group with the tumor cells but no testing compound−absorption value of pure cell culture medium without the cell or the compound]×100%.
(§6) The above data were precessed by software, and the IC50 value was the concentration of the compound corresponding to the 50% inhibition rate of cell growth.
(§7) Based on the above test method of the compound on cell viability, a variety of […] cancer cell lines were tested, using multiple myeloma MM.1S, breast cancer MDA-MB-231 and leukemia MV4-11 cell lines as exemples. Using this test method, the IC50 values of partial compounds in the examples of the present invention measured in multiple myeloma MM.1S, breast cancer MDA-MB-231 cell lines and leukemia MV4-11 cell lines were shown in Table 2.

[3] = test system: leukemia MV4-11 cell line; assay: Cell viability (CCK-8), leukemia MV4-11; assay type: cell-based; conditions: Homo sapiens, 96 h; MV4-11 cells, 4 days, CCK-8, 50% inhibition of cell growth
Procedure: as §1, §2, §3, §4, §5, §6, §7

| Ki (BRD4 BD1 protein) | Ki (BRD4 BD2 protein) | IC50 [1] | IC50 [2] | IC50 [3] | Structure (SMILES) |
| --- | --- | --- | --- | --- | --- |
| 45 nM | 10.9 nM | 2.03 nM | 43 nM |  | COC(=O)c1ccc(NC2CCn3nnc(C)c3-c3ccc(-c4cnn(C)c4)cc32)cc1 (centres unmarked) [LB37, methyl 4-((1-methyl-9-(1-methyl-1H-pyrazol-4-yl)-6,7-dihydro-5H-benzo[c][1,2,3]triazolo[1,5-a]azepin-7-yl)amino)benzoate] |
| 33.7 nM | 7.6 nM | 2.34 nM | 11 nM |  | Cc1nnn2c1-c1ccc(-c3cnn(C)c3)cc1C(Nc1ccc(Cl)cc1)CC2 (centres unmarked) [RA180, N-(4-chlorophenyl)-1-methyl-9-(1-methyl-1H-pyrazol-4-yl)-6,7-dihydro-5H-benzo[c][1,2,3]triazolo[1,5-a]azepin-7-amine] |
| 83.1 nM | 55.9 nM | 6.05 nM | 89 nM |  | COc1ccc2c(c1)C(Nc1ccc(C#N)cc1)CCc1onc(C)c1-2 (centres unmarked) [FA06, 4-(8-methoxy-1-methyl-5,6-dihydro-4H-benzo[6,7]cyclohepta[1,2-d]isoxazol-6-yl)aminobenzonitrile] |
| 23.2 nM | 5.73 nM | 2.32 nM | 1 nM | < 0.1 nM | CCn1cc(-c2ccc3c(c2)C(Nc2ccc(Cl)cc2)CCn2nnc(C)c2-3)cn1 (centres unmarked) [RB05, N-(4-chlorophenyl)-9-(1-ethyl-1H-pyrazol-4-yl)-1-methyl-6,7-dihydro-5H-benzo[c][1,2,3]triazolo[1,5-a]azepin-7-amine] |
| 45.8 nM | 14 nM | 1.1 nM | 105 nM |  | Cc1nnn2c1-c1ccc(-c3cnc4[nH]cnc4c3)cc1C(Nc1ccc(Cl)cc1)CC2 (centres unmarked) [RB43, N-(4-chlorophenyl)-9-(3H-imidazo[4,5-b]pyridin-6-yl)-1-methyl-6,7-dihydro-5H-benzo[c][1,2,3]triazolo[1,5-a]azepin-7-amine] |
| 94.8 nM | 26.9 nM | 4.28 nM | 450 nM |  | Cc1nnn2c1-c1ccc(-c3cnn(C)c3)cc1C(Nc1ccccc1N(C)C)CC2 (centres unmarked) [LB01, N^1,N^1-dimethyl-N^2-(1-methyl-9-(1-methyl-1H-pyrazol-4-yl)-6,7-dihydro-5H-benzo[c][1,2,3]triazolo[1,5-a]azepin-7-yl)benzene-1,2-diamine] |
| 94.6 nM | 16.1 nM | < 1 nM |  | < 0.1 nM | Cc1nnn2c1-c1ccc(-c3cnn(C)c3)cc1C(Nc1ccccc1CO)CC2 (centres unmarked) [LB192, (2-((1-methyl-9-(1-methyl-1H-pyrazol-4-yl)-6,7-dihydro-5H-benzo[c][1,2,3]triazolo[1,5-a]azepin-7-yl)amino)phenyl)methanol] |
| 45.1 nM | 16.5 nM | 2.5 nM | 65 nM |  | Cc1nnn2c1-c1ccc(-c3cn(C)nn3)cc1C(Nc1ccc(Cl)cc1)CC2 (centres unmarked) [RB48, N-(4-chlorophenyl)-1-methyl-9-(1-methyl-1H-1,2,3-triazol-4-yl)-6,7-dihydro-5H-benzo[c][1,2,3]triazolo[1,5-a]azepin-7-amine] |
| 95.7 nM | 12.7 nM | 26 nM |  | 39.3 nM | Cc1nnn2c1-c1ccc(-c3cnn(C)c3)cc1C(Nc1cccc(CO)c1)CC2 (centres unmarked) [LB164, (3-((1-methyl-9-(1-methyl-1H-pyrazol-4-yl)-6,7-dihydro-5H-benzo[c][1,2,3]triazolo[1,5-a]azepin-7-yl)amino)phenyl)methanol] |

| Structure (SMILES) | Ki (BRD4 BD1 protein) | Ki (BRD4 BD2 protein) | IC50 [1] | IC50 [2] | IC50 [3] |
| --- | --- | --- | --- | --- | --- |
| Cc1nnn2c1-c1ccc(C3=CCN(C(C)C)CC3)cc1[C@H](Nc1cccc(Cl)c1)CC2 [RE13 (R), (7R)—N-(3-chlorophenyl)-9-(1-isopropyl-1,2,3,6-tetrahydropyridin-4-yl)-1-methyl-6,7-dihydro-5H-benzo[c][1,2,3]triazolo[1,5-a]azepin-7-amine 2,2,2-trifluoroacetate] | 1420 nM | 14.8 nM | 546 nM |  | 126 nM |
